How the values were obtained:
[1] = Half life in Beagle dog at 1 mg/kg, iv measured for 0.083 to 24 hrs by LC-MS/MS analysis; assay type: ADME, organism-based, Canis lupus familiaris; conditions: in vivo, time 0.083-24 hrs
[2] = Clearance in Beagle dog at 1 mg/kg, iv measured for 0.083 to 24 hrs by LC-MS/MS analysis; assay type: ADME, organism-based, Canis lupus familiaris; conditions: in vivo, time 0.083-24 hrs
[3] = AUC (0 to infinity) in Beagle dog at 1 mg/kg, iv measured for 0.083 to 24 hrs by LC-MS/MS analysis; assay type: ADME, organism-based, Canis lupus familiaris; parameters: time upper 24 hrs, time lower 0.083 hrs, dose 1 mg/kg, route iv; conditions: in vivo
[4] = Cmax in Beagle dog at 1 mg/kg, iv measured for 0.083 to 24 hrs by LC-MS/MS analysis; assay type: ADME, organism-based, Canis lupus familiaris; parameters: time upper 24 hrs, time lower 0.083 hrs, dose 1 mg/kg, route iv; conditions: in vivo
MV4-11 = experiment: Antiproliferative activity against human MV4-11 cells assessed as inhibition of cell proliferation treated for 72 hrs by resazurin dye-based fluorescence assay; assay type: functional; conditions: MV4-11, 72 h
Huh-7 = experiment: Antiproliferative activity against human Huh-7 cells assessed as inhibition of cell proliferation treated for 72 hrs by resazurin dye-based fluorescence assay; assay type: functional; conditions: Huh-7, 72 h
MM1.S = experiment: Antiproliferative activity against human MM1.S cells assessed as inhibition of cell proliferation treated for 72 hrs by resazurin dye-based fluorescence assay; assay type: functional
CWR22R [5] = experiment: Antiproliferative activity against human 22Rv1 cells assessed as inhibition of cell proliferation treated for 72 hrs by resazurin dye-based fluorescence assay; assay type: functional; conditions: 22Rv1, 72 h
BXPC-3 [6] = experiment: Antiproliferative activity against human BXPC-3 cells assessed as inhibition of cell proliferation treated for 72 hrs by resazurin dye-based fluorescence assay; assay type: functional; conditions: BXPC-3, 72 h
MIA PaCa-2 = experiment: Antiproliferative activity against human MIA PaCa-2 cells assessed as inhibition of cell proliferation treated for 72 hrs by resazurin dye-based fluorescence assay; assay type: functional; conditions: MIA PaCa-2, 72 h
JeKo-1 = experiment: Antiproliferative activity against human JeKo-1 cells assessed as inhibition of cell proliferation treated for 72 hrs by resazurin dye-based fluorescence assay; assay type: functional; conditions: JeKo-1, 72 h
[7] = Toxicity in castrated male nude Balb/c mouse xenografted with human 22Rv1 cells assessed as tolerance at 50 mg/kg, ip administered twice a week measured after 28 days; assay type: organism-based, CWR22R; conditions: in vivo, 672 h, time 28 day
BXPC-3 [8] = experiment: Induction of apoptosis in human BXPC-3 cells assessed as necrotic cells at 100 nM incubated for 24 hrs by […] (reference value: 3.57 %); assay type: functional
[9] = Toxicity in castrated male nude Balb/c mouse xenografted with human 22Rv1 cells assessed as animal weight loss at 50 mg/kg, ip administered twice a week measured after 28 days; assay type: organism-based, CWR22R; conditions: in vivo, 672 h, time 28 day
[10] = Toxicity in castrated male nude Balb/c mouse xenografted with human 22Rv1 cells assessed as toxic signs at 50 mg/kg, ip administered twice a week measured after 28 days; assay type: organism-based, CWR22R; conditions: in vivo, 672 h, time 28 day
CWR22R [11] = experiment: In vivo antitumor activity against human 22Rv1 cells xenografted in castrated male nude Balb/c mouse assessed as relative increment ratio at 50 mg/kg, ip administered twice a week measured after 28 days relative to control; assay type: functional; conditions: time 28 day
BXPC-3 [12] = experiment: Induction of apoptosis in human BXPC-3 cells assessed as early cells at 100 nM incubated for 24 hrs by […] (reference value: 1.68 %); assay type: functional
BXPC-3 [13] = experiment: Induction of apoptosis in human BXPC-3 cells assessed as late cells at 100 nM incubated for 24 hrs by […] (reference value: 1.24 %); assay type: functional
BXPC-3 [14] = experiment: Induction of apoptosis in human BXPC-3 cells assessed as viable cells at 100 nM incubated for 24 hrs by […] (reference value: 93.51 %); assay type: functional; conditions: read-out: Activity
CWR22R [15] = experiment: In vivo antitumor activity against human 22Rv1 cells xenografted in castrated male nude Balb/c mouse assessed as tumor growth inhibition at 50 mg/kg, ip administered twice a week measured after 28 days relative to control; assay type: functional; conditions: 22Rv1, 672 h, time 28 day, read-out: TGI

Structure (SMILES): Nc1ccn([C@@H]2O[C@H](CO)[C@@H](OP(=O)(O)OCC(=O)OCc3ccccc3)C2(F)F)c(=O)n1
- half-life [1]: 35.2 min
- clearance [2]: 28.4 mL/min/kg
- AUC(0-inf) [3]: 637 ng·h/mL
- Cmax [4]: 2560 ng/mL
- IC50 (MV4-11): 10.3 nM
- IC50 (Huh-7): 69 nM
- IC50 (MM1.S): 17.3 nM
- IC50 (CWR22R [5]): 43.2 nM
- IC50 (BXPC-3 [6]): 64.5 nM

Structure (SMILES): COC(=O)COP(=O)(N[C@@H](C)C(=O)OC(C)C)OC[C@H]1O[C@@H](n2ccc(N)nc2=O)C(F)(F)[C@@H]1O (stereo not given in full)
- IC50 (MIA PaCa-2): 29.4 nM
- IC50 (MV4-11): 3.5 nM
- IC50 (Huh-7): 41.1 nM
- IC50 (MM1.S): 4.7 nM
- IC50 (JeKo-1): 26.2 nM
- IC50 (BXPC-3 [6]): 40.5 nM

Structure (SMILES): Nc1ccn([C@@H]2O[C@@H]3CO[P@@](=O)(OCC(=O)OCc4ccccc4)O[C@H]3C2(F)F)c(=O)n1
- IC50 (MV4-11): 4.1 nM
- IC50 (Huh-7): 22 nM
- IC50 (MM1.S): 6 nM
- IC50 (CWR22R [5]): 8.1 nM
- IC50 (BXPC-3 [6]): 15 nM

Structure (SMILES): C[C@H](NP(=O)(OC[C@H]1O[C@@H](n2ccc(N)nc2=O)C(F)(F)[C@@H]1O)Oc1ccccc1)C(=O)OC1CCCCC1 (stereo not given in full)
- IC50 (MIA PaCa-2): 540 nM
- IC50 (MM1.S): 130 nM
- IC50 (BXPC-3 [6]): > 1000 nM

Structure (SMILES): COC(=O)COP1(=O)OC[C@H]2O[C@@H](n3ccc(N)nc3=O)C(F)(F)[C@@H]2O1 (stereo not given in full)
- IC50 (MIA PaCa-2): 13.6 nM
- IC50 (MV4-11): 5.8 nM
- IC50 (Huh-7): 23 nM
- IC50 (MM1.S): 2.7 nM
- IC50 (CWR22R [5]): 21.5 nM
- IC50 (JeKo-1): 23.2 nM
- IC50 (BXPC-3 [6]): 31.1 nM

Structure (SMILES): Nc1ccn([C@@H]2O[C@H](COP(=O)(O)OCC(=O)OCc3ccccc3)[C@@H](O)C2(F)F)c(=O)n1
- half-life [1]: 35.2 min
- clearance [2]: 28.4 mL/min/kg
- AUC(0-inf) [3]: 637 ng·h/mL
- Cmax [4]: 2560 ng/mL
- IC50 (MV4-11): 10.3 nM
- IC50 (Huh-7): 69 nM
- IC50 (MM1.S): 17.3 nM
- IC50 (CWR22R [5]): 43.2 nM
- IC50 (BXPC-3 [6]): 64.5 nM

Structure (SMILES): CCCC(CCC)C(=O)Nc1ccn([C@@H]2O[C@H](COP(=O)(N[C@@H](C)C(=O)OCc3ccccc3)Oc3ccccc3)[C@@H](O)C2(F)F)c(=O)n1 (stereo not given in full)
- IC50 (MIA PaCa-2): > 1000 nM
- IC50 (MM1.S): > 1000 nM
- IC50 (BXPC-3 [6]): > 1000 nM

Structure (SMILES): Nc1ccn([C@@H]2O[C@@H]3COP(=O)(OCCCCC(=O)OCc4ccccc4)O[C@H]3C2(F)F)c(=O)n1 (stereo not given in full)
- IC50 (MIA PaCa-2): 50.9 nM
- IC50 (BXPC-3 [6]): 213 nM

Structure (SMILES): CC(C)OC(=O)[C@H](C)NP(=O)(OC[C@H]1O[C@@H](n2ccc(N)nc2=O)C(F)(F)[C@@H]1O)Oc1ccccc1 (stereo not given in full)
- IC50 (MIA PaCa-2): 710 nM
- IC50 (MM1.S): 500 nM
- IC50 (BXPC-3 [6]): > 1000 nM

Structure (SMILES): Nc1ccn([C@@H]2O[C@@H]3CO[P@](=O)(OCC(=O)OCc4ccccc4)O[C@H]3C2(F)F)c(=O)n1
- IC50 (MV4-11): 3.8 nM
- IC50 (Huh-7): 22 nM
- IC50 (MM1.S): 5 nM
- IC50 (CWR22R [5]): 10.6 nM
- IC50 (BXPC-3 [6]): 14.5 nM

Structure (SMILES): CCC(=O)Nc1ccn([C@@H]2O[C@@H]3COP(=O)(OCC(=O)OCc4ccccc4)O[C@H]3C2(F)F)c(=O)n1 (stereo not given in full)
- IC50 (MIA PaCa-2): 530 nM
- IC50 (BXPC-3 [6]): 908 nM

Structure (SMILES): COC(=O)COP(=O)(N[C@@H](C)C(=O)OCc1ccccc1)OC[C@H]1O[C@@H](n2ccc(N)nc2=O)C(F)(F)[C@@H]1O (stereo not given in full)
- IC50 (MIA PaCa-2): 27 nM
- IC50 (MV4-11): 5.8 nM
- IC50 (Huh-7): 28.2 nM
- IC50 (MM1.S): 4.1 nM
- IC50 (JeKo-1): 22.6 nM
- IC50 (BXPC-3 [6]): 35.2 nM

Structure (SMILES): Nc1ccn([C@@H]2O[C@@H]3COP(=O)(OCCC(=O)OCc4ccccc4)O[C@H]3C2(F)F)c(=O)n1 (stereo not given in full)
- IC50 (MIA PaCa-2): 29 nM
- IC50 (BXPC-3 [6]): 68.4 nM

Structure (SMILES): CC(C)OC(=O)COP1(=O)OC[C@H]2O[C@@H](n3ccc(N)nc3=O)C(F)(F)[C@@H]2O1 (stereo not given in full)
- IC50 (MIA PaCa-2): 24.2 nM
- IC50 (MV4-11): 4.9 nM
- IC50 (Huh-7): 26.1 nM
- IC50 (MM1.S): 5.4 nM
- IC50 (CWR22R [5]): 15 nM
- IC50 (JeKo-1): 23.4 nM
- IC50 (BXPC-3 [6]): 47.5 nM

Structure (SMILES): Nc1ccn([C@@H]2O[C@@H]3COP(=O)(OCCCC(=O)OCc4ccccc4)O[C@H]3C2(F)F)c(=O)n1 (stereo not given in full)
- IC50 (MIA PaCa-2): 35.7 nM
- IC50 (BXPC-3 [6]): 78.3 nM

Structure (SMILES): CCOC(=O)COP1(=O)OC[C@H]2O[C@@H](n3ccc(N)nc3=O)C(F)(F)[C@@H]2O1 (stereo not given in full)
- IC50 (MIA PaCa-2): 16.3 nM
- IC50 (MV4-11): 6.1 nM
- IC50 (Huh-7): 38.4 nM
- IC50 (MM1.S): 3.9 nM
- IC50 (CWR22R [5]): 20.5 nM
- IC50 (JeKo-1): 31.6 nM
- IC50 (BXPC-3 [6]): 22.6 nM

Structure (SMILES): COC(=O)[C@H](C)NP(=O)(OC[C@H]1O[C@@H](n2ccc(N)nc2=O)C(F)(F)[C@@H]1O)Oc1ccccc1 (stereo not given in full)
- IC50 (MIA PaCa-2): 553 nM
- IC50 (MM1.S): 110 nM
- IC50 (BXPC-3 [6]): > 1000 nM

Structure (SMILES): CCCC(CCC)C(=O)Nc1ccn([C@@H]2O[C@H](COP(=O)(N[C@@H](C)C(=O)OC(C)C)OCC(=O)OC)[C@@H](O)C2(F)F)c(=O)n1 (stereo not given in full)
- IC50 (MIA PaCa-2): > 1000 nM
- IC50 (MM1.S): > 1000 nM
- IC50 (BXPC-3 [6]): > 1000 nM

Structure (SMILES): C[C@H](NP(=O)(OC[C@H]1O[C@@H](n2ccc(N)nc2=O)C(F)(F)[C@@H]1O)Oc1ccccc1)C(=O)OCc1ccccc1 (stereo not given in full) [FOSGEMCITABINE PALABENAMIDE]
- Activity [7]: Non-Toxic
- IC50 (MIA PaCa-2): 142 nM
- IC50 (MV4-11): 61 nM
- IC50 (Huh-7): 350 nM
- IC50 (MM1.S): 31.1 nM
- Activity (BXPC-3 [8]): 7.48%
- Activity [9]: Non-Toxic
- IC50 (CWR22R [5]): 130 nM
- Activity [10]: Non-Toxic
- T/C (CWR22R [11]): 51.9%
- Activity (BXPC-3 [12]): 1.52%
- Activity (BXPC-3 [13]): 2.3%
- IC50 (JeKo-1): 160 nM
- viability at 0.1 µM (BXPC-3 [14]): 88.7%
- IC50 (BXPC-3 [6]): 230 nM
- inhibition in vivo at 50 mg/kg (CWR22R [15]): 55.6%

— ChEMBL document CHEMBL5247648, “Design, Synthesis, and Anti-Cancer Evaluation of Novel Cyclic Phosphate Prodrug of Gemcitabine” (J Med Chem, 2023)
